The target in experiment [1] is T1, human cloned CHRM5 receptor (Homo sapiens, UniProt P08912).
T1 construct: expressed in transfected cells; host or cells: CHO (M5_CHO)
T1 sequence (P08912 1-532): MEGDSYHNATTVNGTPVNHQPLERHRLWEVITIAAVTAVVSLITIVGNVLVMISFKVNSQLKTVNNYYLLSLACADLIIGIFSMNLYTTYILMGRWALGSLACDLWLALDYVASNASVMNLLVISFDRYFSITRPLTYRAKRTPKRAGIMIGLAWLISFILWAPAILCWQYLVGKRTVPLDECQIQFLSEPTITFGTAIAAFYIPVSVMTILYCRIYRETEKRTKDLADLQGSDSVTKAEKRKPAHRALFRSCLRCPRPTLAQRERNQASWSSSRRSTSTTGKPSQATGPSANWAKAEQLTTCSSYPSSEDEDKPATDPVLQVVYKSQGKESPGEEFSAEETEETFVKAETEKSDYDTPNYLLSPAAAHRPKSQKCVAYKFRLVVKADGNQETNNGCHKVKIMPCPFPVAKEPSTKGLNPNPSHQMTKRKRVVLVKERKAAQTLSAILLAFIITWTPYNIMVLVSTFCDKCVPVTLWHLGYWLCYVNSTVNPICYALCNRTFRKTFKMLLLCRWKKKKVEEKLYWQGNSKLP
As to the kind of experiment: CHRM5 Ca++ Flux Assay (M5_CHO cells, agonist mode). Format: cell-based. The settings on record: for Emax / M5 FDSS PA %: Percent Activity (PA) measured to EC100 of Carbachol; for Emax: read-out: M5 FDSS PA %; for EC50: agonist mode, geometric mean if tested more than once, read-out: M5 FDSS EC50. Here is the method: (§1) The above examples were characterized by measuring the intracellular mobilization of Ca^++ ions caused by signaling events mediated by the receptor. The Intra-cellular Calcium flux levels were captured by the highly sensitive Ca^++ indicator, Calcium Assay Kit (BD Biosciences; Catalog Number 640178. The fluorescent activity from all receptors were monitored by the fluorescent imager, FDSS 7000EX (Hamamatsu) over a span of 3 minutes. The change in Calcium flux was readily captured upon activation with the muscarinic orthosteric agonist, Carbachol.
CHO-K1 cells stably expressing the human cloned CHRM3 receptor (M3_CHO cells) were grown and maintained in a monolayer culture with F12/HAM (Life Technologies) supplemented with 10% Fetal Bovine Serum, IX Pen-Strep, and 0.4 mg/mL Geneticin in a humidified atmosphere (5% CO2) at 37° C. The cultures were grown to 80-90% confluency in T150 flasks (Corning) and washed with 1×DPBS and lifted with 0.05% Trypsin (Life Technologies). The cells were then spun (1K rpm, 3 minutes) and frozen using Recovery Cell Culture Freezing Media (Gibco Technologies). Cells were stored in liquid nitrogen and thawed a day before the assay. A similar procedure was used for cells stably expressing the human cloned CHRM5 receptor (M5_CHO).
Prior to the day of the assay, stable M3_CHO or M5_CHO cells were thawed and plated on Greiner 384 well black TC treated plates at 12K cells/well in F12/DMEM supplemented with 10% FBS (Hyclone) and kept overnight in a humidified atmosphere (5% CO2) at 37° C. The next day, cells were loaded with Ca^++ dye (BD Biosciences) using Loading Buffer (HBSS +Ca/+Mg, 20 mM HEPES, 2.5 mM Probenecid) and placed back in cell incubator for a minimum of 1 hour. After incubation, the dye was replaced with Assay Buffer (HBSS −Ca/−Mg, 20 mM HEPES, 2.5 mM Probenecid) and kept at room temperature in the dark before running on cell imager. The FDSS 7000EX (Hamamatsu) was used to acquire Ca^+− traces from cells treated with 11 point dose response of compounds in triplicate in order to generate dose response curves in agonist mode. All compounds were serially diluted in DMSO then prepared in Assay Buffer for Ca^++ flux studies. The dose response curves were generated from the average of triplicate wells obtained from each data point and used a non-linear regression of four parameter dose response algorithm. The Percent Activity (PA) was measured to EC100 of Carbachol.
(§2) If an Example was tested more than once in an assay, then the values below represent the geometric mean of the results from each independent experiment.

The target of experiment [2] is T2, Cloned human M1 receptor (CHRM1) (Homo sapiens, UniProt P11229).
T2 construct: expressed in transfected cells; host or cells: HEK293
T2 sequence (P11229 1-460): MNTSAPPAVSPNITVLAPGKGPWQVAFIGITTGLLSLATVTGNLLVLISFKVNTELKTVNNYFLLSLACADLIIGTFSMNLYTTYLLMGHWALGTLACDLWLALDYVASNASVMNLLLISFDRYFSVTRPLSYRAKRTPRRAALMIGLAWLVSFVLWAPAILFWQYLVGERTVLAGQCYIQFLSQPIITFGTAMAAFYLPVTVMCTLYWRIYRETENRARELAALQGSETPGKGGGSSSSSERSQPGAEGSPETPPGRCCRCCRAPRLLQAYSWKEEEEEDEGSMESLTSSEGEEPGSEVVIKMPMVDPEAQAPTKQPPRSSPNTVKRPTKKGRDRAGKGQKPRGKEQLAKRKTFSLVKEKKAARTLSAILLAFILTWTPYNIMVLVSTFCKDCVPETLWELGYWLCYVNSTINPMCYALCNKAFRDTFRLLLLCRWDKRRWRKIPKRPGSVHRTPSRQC
As to the kind of experiment: CHRM1 Ca++ Flux Assay (HEK293 M1 cells, agonist mode). Format: cell-based. The settings on record: for Emax / M1 FDSS PA %: Percent Activity (PA); for Emax: read-out: M1 FDSS PA %; for EC50: geometric mean if tested more than once, read-out: M1 FDSS EC50. As for the experimental part: as §1
Cloned human M1 receptor (CHRM1) was stably expressed in HEK293 cells and were grown and maintained in a monolayer culture with DMEM/High Glucose (Life Technologies) supplemented with 10% Fetal Bovine Serum, 1×Pen-Strep, and 0.5 mg/mL Geneticin in a humidified atmosphere (5% CO2) at 37° C. The cultures were grown to 90% confluency in T150 flasks (Corning) and washed with 1×DPBS and lifted with 0.05% Trypsin (Life Technologies). The cells were then spun (1K rpm, 3 minutes) and frozen using Recovery Cell Culture Freezing Media (Gibco Technologies). Cells were stored in liquid nitrogen and thawed a day before the assay.
Prior to the day of the assay, stable HEK293 M1 cells were thawed and plated on 384 well black walled clear bottom TC treated plates (Greiner Cat #781091) at 25K cells/well with DMEM/High Glucose supplemented with 10% FBS (Hyclone) Pen-Strep (Life Technologies) and kept overnight in a humidified atmosphere (5% CO2) at 37° C. The following day, cells were loaded with 20 uL Ca^++ dye (BD Biosciences) using Loading Buffer (HBSS +Ca/+Mg, 20 mM HEPES) and placed back in cell incubator for a minimum of 1 hour. The dye was replaced with 45 μL Assay Buffer (HBSS −Ca/−Mg, 20 mM HEPES) and kept at room temperature prior to running on cell imager. Compounds were prepared in Assay Buffer and 5 uL was added to the cells. The FDSS 7000EX (Hamamatsu) was used to acquire Ca++ traces for 3 minutes from cells treated with 11 point dose in triplicate in order to generate dose response curves in agonist mode. All compounds were serially diluted in DMSO then prepared in Assay Buffer for Ca^++ flux studies. The dose response curves were generated from the average of triplicate wells obtained from each data point and used a non-linear regression of four parameter dose response algorithm. The Percent Activity (PA) was measured to EC100 of Carbachol.
as §2

Broadly, the EC50 is the concentration giving half of the maximal effect.

Some results are limits rather than exact numbers.

In the case of `Fc1cc(F)c(O[C@@H]2CCOC2)c(C2CCN([C@@H]3COC4(C3)CN(c3nnco3)C4)CC2)c1` [Example 2CC, (S)-7-(4-(3,5-difluoro-2-(((R)-tetrahydrofuran-3-yl)oxy)phenyl)piperidin-1-yl)-2-(1,3,4-oxadiazol-2-yl)-5-oxa-2-azaspiro[3.4]octane], the Emax came out at 0% in experiment [1] and 85% in experiment [2]. The EC50 in experiment [1] was > 25000 nM; in experiment [2], 2180 nM.

On to `Fc1cc(OC2CCOCC2)c(C2CCN([C@@H]3COC4(C3)CN(c3nnco3)C4)CC2)cc1F` [Example 2GG, (S)-7-(4-(4,5-difluoro-2-((tetrahydro-2H-pyran-4-yl)oxy)phenyl)piperidin-1-yl)-2-(1,3,4-oxadiazol-2-yl)-5-oxa-2-azaspiro[3.4]octane], for which, in experiment [1], the Emax was determined as 0% and the concentration giving a half-maximal response (EC50) was > 25000 nM. Also, in experiment [2], the Emax is 64% and the EC50 was 2900 nM.

On to `C[C@H](Oc1ccc(F)cc1C1CCN([C@@H]2COC3(C2)CN(c2nnco2)C3)CC1)C1CCOCC1` [Example 2X, (S)-7-(4-(5-fluoro-2-((S)-1-(tetrahydro-2H-pyran-4-yl)ethoxy)phenyl)piperidin-1-yl)-2-(1,3,4-oxadiazol-2-yl)-5-oxa-2-azaspiro[3.4]octane or(S)-7-(4-(5-fluoro-2-((R)-1-(tetrahydro-2H-pyran-4-yl)ethoxy)phenyl)piperidin-1-yl)-2-(1,3,4-oxadiazol-2-yl)-5-oxa-2-azaspiro[3.4]octane], for which, in experiment [1], the “M5 FDSS PA %” value was 0% and the EC50 was > 25000 nM. Further, in experiment [2], the “M1 FDSS PA %” value is given as 42% and the concentration for a half-maximal effect (EC50) is 11300 nM.

`Fc1ccc([C@H]2CCOC2)c(C2CCN([C@@H]3COC4(C3)CN(c3nnco3)C4)CC2)c1` (single isomer, unassigned) [Example 3E, (S)-7-(4-(5-fluoro-2-((R)-tetrahydrofuran-3-yl)phenyl)piperidin-1-yl)-2-(1,3,4-oxadiazol-2-yl)-5-oxa-2-azaspiro[3.4]octane or (S)-7-(4-(5-fluoro-2-((S)-tetrahydrofuran-3-yl)phenyl)piperidin-1-yl)-2-(1,3,4-oxadiazol-2-yl)-5-oxa-2-azaspiro[3.4]octane]: in experiment [1], the “M5 FDSS PA %” value worked out at 0% and the EC50 was > 25000 nM. In addition, in experiment [2], the “M1 FDSS PA %” value is listed as 86% and the EC50 was 695 nM.

On to `Cc1nc(COc2ccccc2C2CCN([C@@H]3COC4(C3)CN(c3nncs3)C4)CC2)no1` [Example 5F, (S)-7-(4-(2-((5-methyl-1,2,4-oxadiazol-3-yl)methoxy)phenyl)piperidin-1-yl)-2-(1,3,4-thiadiazol-2-yl)-5-oxa-2-azaspiro[3.4]octane], for which the Emax amounted to 35% in experiment [1] and 106% in experiment [2]. Further, the results for the EC50 in experiment [1] and in experiment [2] were 2530 nM and 11 nM, respectively.

For `Fc1ccc(O[C@H]2CCCOC2)c(C2CCN([C@@H]3COC4(C3)CN(c3nnco3)C4)CC2)c1` (single isomer, unassigned) [Example 2Q, (S)-7-(4-(5-fluoro-2-(((S)-tetrahydro-2H-pyran-3-yl)oxy)phenyl)piperidin-1-yl)-2-(1,3,4-oxadiazol-2-yl)-5-oxa-2-azaspiro[3.4]octane or (S)-7-(4-(5-fluoro-2-(((R)-tetrahydro-2H-pyran-3-yl)oxy)phenyl)piperidin-1-yl)-2-(1,3,4-oxadiazol-2-yl)-5-oxa-2-azaspiro[3.4]octane], in experiment [1], the “M5 FDSS PA %” value was determined as 0% and the EC50 was > 25000 nM. Also, in experiment [2], the “M1 FDSS PA %” value amounted to 80% and the EC50 stood at 2020 nM.

Turning to `Fc1ccc(OC2CC3(COC3)C2)c(C2CCN([C@@H]3COC4(C3)CN(c3ncco3)C4)CC2)c1` [Example 4G, (S)-7-(4-(2-((2-oxaspiro[3.3]heptan-6-yl)oxy)-5-fluorophenyl)piperidin-1-yl)-2-(oxazol-2-yl)-5-oxa-2-azaspiro[3.4]octane], the Emax in experiment [1] turned out to be 0%; in experiment [2] it was 62%. For the same molecule, the EC50 is > 25000 nM in experiment [1] and 1760 nM in experiment [2].

Take `Fc1ccc(O[C@H]2CCOC2)c(C2CCN([C@@H]3COC4(C3)CN(c3nnco3)C4)CC2)c1` [Example 1H, (S)-7-(4-(5-fluoro-2-(((S)-tetrahydrofuran-3-yl)oxy)phenyl)piperidin-1-yl)-2-(1,3,4-oxadiazol-2-yl)-5-oxa-2-azaspiro[3.4]octane]: in experiment [1], the Emax is 0% and the EC50 is > 25000 nM. Further, in experiment [2], the Emax was determined as 87% and the EC50 worked out at 631 nM.

Consider `CC(C)(O)[C@H]1C[C@@H](Oc2ccc(F)cc2C2CCN([C@@H]3COC4(C3)CN(c3ncco3)C4)CC2)C1` (single isomer, unassigned) [Example 4T, 2-((1R,3s)-3-(4-fluoro-2-(1-((S)-2-(oxazol-2-yl)-5-oxa-2-azaspiro[3.4]octan-7-yl)piperidin-4-yl)phenoxy)cyclobutyl)propan-2-ol or 2-((1S,3r)-3-(4-fluoro-2-(1-((S)-2-(oxazol-2-yl)-5-oxa-2-azaspiro[3.4]octan-7-yl)piperidin-4-yl)phenoxy)cyclobutyl)propan-2-ol], for which, in experiment [1], the “M5 FDSS PA %” value stood at 0% and the EC50 is > 25000 nM. Moreover, in experiment [2], the “M1 FDSS PA %” value is reported as 63% and the EC50 is 909 nM.
